ChEMBL document CHEMBL1201862, “PubChem BioAssay data set” (2004)
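Protocol summary: plate cells (96-well), add compound at 5 concentrations, incubate 48 h, interpolate endpoints linearly. GI50: concentration for 50% inhibition of growth.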 Activity calls are given as the source filed them. Cut-off read from the data, not from the text of the source: active = GI50 up to about 1.1 µM and inactive = higher.

Columns and labels:
Assay in all cases: DTP human tumour cell line panel, 48 h
RPMI-8226 = test system: RPMI-8226
OVCAR-4 = test system: OVCAR-4
OVCAR-8 = test system: OVCAR-8
NCI/ADR-RES = test system: NCI/ADR-RES
NCI-H522 = test system: NCI-H522
SW-620 = test system: SW-620
MOLT-4 = test system: MOLT-4
LOX IMVI = test system: LOX IMVI
UACC-257 = test system: UACC-257
MDA-MB-435 = test system: MDA-MB-435
SNB-75 = test system: SNB-75
A498 = test system: A498
SK-MEL-28 = test system: SK-MEL-28
T47D = test system: T47D
NCI-H23 = test system: NCI-H23
UACC-62 = test system: UACC-62
HOP-62 = test system: HOP-62
NCI-H226 = test system: NCI-H226
MDA-MB-231 = test system: MDA-MB-231
A549 = test system: A549

Measured: GI50

N#CC(C#N)/N=N/c1ccc(-c2nc3ccccc3s2)cc1
inactive: RPMI-8226 1.51 µM | OVCAR-4 6.49 µM | OVCAR-8 4.37 µM | NCI/ADR-RES 3.54 µM | NCI-H522 2.65 µM | SW-620 4.79 µM | MOLT-4 1.33 µM | LOX IMVI 7 µM | UACC-257 3.1 µM | MDA-MB-435 5.6 µM | SNB-75 25.9 µM | A498 11.1 µM | SK-MEL-28 10.4 µM | T47D 2.22 µM | NCI-H23 2.93 µM

CC1=C(C)C(=O)O[C@@H]([C@](C)(O)[C@]2(O)CC[C@@]3(O)[C@@H]4C[C@H](O)[C@]5(O)[C@@H](O)C=CC(=O)[C@]5(C)[C@H]4CC[C@]23C)C1
inactive: RPMI-8226 49.9 µM | UACC-62 47.6 µM | OVCAR-4 > 100 µM | HOP-62 > 100 µM | OVCAR-8 > 100 µM | NCI-H226 > 100 µM | MDA-MB-231 > 100 µM | NCI-H522 42.3 µM | SW-620 > 100 µM | MOLT-4 > 100 µM | LOX IMVI 58.5 µM | UACC-257 > 100 µM | MDA-MB-435 87.9 µM | SNB-75 37.2 µM | A498 > 100 µM | SK-MEL-28 > 100 µM | T47D > 100 µM | NCI-H23 > 100 µM | A549 > 100 µM

CCCCCCCCCN1CCC(=O)C(C(=O)OC)C1 (stereo not drawn)
inactive: RPMI-8226 15.6 µM | UACC-62 12.2 µM | OVCAR-4 2.29 µM | HOP-62 16.9 µM | OVCAR-8 8.07 µM | NCI-H226 12.9 µM | NCI/ADR-RES 13.6 µM | NCI-H522 8.73 µM | SW-620 11.9 µM | MOLT-4 13.6 µM | LOX IMVI 12.5 µM | UACC-257 11 µM | MDA-MB-435 14.7 µM | SNB-75 17.9 µM | A498 19 µM | T47D 10.4 µM | NCI-H23 2.96 µM | A549 16.6 µM

Cc1ccc(C(=O)N(C2CCCCC2)C2CCCCC2)cc1/N=N/N(C)C
inactive: RPMI-8226 8.75 µM | UACC-62 7.78 µM | OVCAR-4 10.4 µM | HOP-62 12.3 µM | OVCAR-8 8.81 µM | NCI-H226 19.7 µM | MDA-MB-231 12.6 µM | NCI/ADR-RES 19.5 µM | NCI-H522 6.01 µM | SW-620 8.83 µM | MOLT-4 14.4 µM | LOX IMVI 15.8 µM | UACC-257 12.9 µM | MDA-MB-435 16.2 µM | SK-MEL-28 7.14 µM | T47D 18 µM | NCI-H23 11.3 µM | A549 13.7 µM

N=c1[nH]cnc2c1nnn2C1C=CC(COS(N)(=O)=O)C1 (stereo not drawn)
inactive: RPMI-8226 3.59 µM | UACC-62 3.37 µM | OVCAR-4 6.84 µM | HOP-62 9.91 µM | OVCAR-8 2.38 µM | NCI-H226 4.43 µM | MDA-MB-231 8.07 µM | NCI/ADR-RES 5.2 µM | SW-620 11.6 µM | MOLT-4 15.6 µM | LOX IMVI 4.56 µM | UACC-257 14.7 µM | MDA-MB-435 4.24 µM | SNB-75 4.05 µM | SK-MEL-28 3.21 µM | T47D 3.94 µM | NCI-H23 1.95 µM | A549 10.5 µM

CCOC(=O)C1(C#N)CC1
inactive: UACC-62 > 100 µM | OVCAR-4 > 100 µM | HOP-62 > 100 µM | OVCAR-8 > 100 µM | NCI-H226 > 100 µM | MDA-MB-231 > 100 µM | NCI/ADR-RES > 100 µM | NCI-H522 > 100 µM | SW-620 > 100 µM | MOLT-4 > 100 µM | LOX IMVI > 100 µM | UACC-257 > 100 µM | SNB-75 > 100 µM | SK-MEL-28 > 100 µM | T47D > 100 µM | NCI-H23 > 100 µM | A549 > 100 µM

Cc1cn([C@@H]2C[C@H](CO)[C@@H]2O)c(=O)[nH]c1=O
inactive: RPMI-8226 > 100 µM | OVCAR-4 > 100 µM | HOP-62 > 100 µM | OVCAR-8 > 100 µM | NCI-H226 > 100 µM | MDA-MB-231 > 100 µM | NCI/ADR-RES > 100 µM | NCI-H522 > 100 µM | SW-620 > 100 µM | MOLT-4 > 100 µM | LOX IMVI > 100 µM | UACC-257 > 100 µM | MDA-MB-435 > 100 µM | SNB-75 > 100 µM | A498 > 100 µM | SK-MEL-28 > 100 µM | NCI-H23 > 100 µM | A549 > 100 µM

CCN(C(=O)N[C@H](C(=O)N[C@@H](CSC)C(=O)N[C@@H](C)C(=O)OC)C(C)C)c1ccccc1
inactive: UACC-62 13.8 µM | OVCAR-4 20 µM | HOP-62 19.8 µM | OVCAR-8 17.2 µM | NCI-H226 16.3 µM | MDA-MB-231 15.1 µM | NCI/ADR-RES > 100 µM | NCI-H522 10.2 µM | SW-620 14.6 µM | MOLT-4 8.3 µM | LOX IMVI 10.4 µM | UACC-257 12.4 µM | MDA-MB-435 14.7 µM | SNB-75 12.4 µM | SK-MEL-28 15.3 µM | T47D 26.4 µM | NCI-H23 17.8 µM | A549 23.6 µM

O=C(c1cccc2cc(O)ccc12)c1cn(CCN2CCOCC2)c2ccccc12
inactive: RPMI-8226 47.1 µM | UACC-62 17.7 µM | HOP-62 22 µM | OVCAR-8 31.6 µM | NCI-H226 39.9 µM | MDA-MB-231 19.5 µM | NCI-H522 30.3 µM | SW-620 22.4 µM | MOLT-4 34.7 µM | LOX IMVI 20.6 µM | UACC-257 21.7 µM | SK-MEL-28 42.6 µM | T47D 38.3 µM | NCI-H23 33.3 µM

O=C(N[C@H](CO)[C@H](O)c1ccc([N+](=O)[O-])cc1)C(Cl)Cl [CHLORAMPHENICOL]
inactive: RPMI-8226 > 100 µM | UACC-62 > 100 µM | OVCAR-4 > 95.9 µM | HOP-62 > 100 µM | OVCAR-8 > 100 µM | NCI-H226 > 100 µM | MDA-MB-231 47.8 µM | NCI/ADR-RES > 100 µM | NCI-H522 > 100 µM | SW-620 > 100 µM | MOLT-4 > 100 µM | LOX IMVI > 100 µM | UACC-257 > 100 µM | MDA-MB-435 > 100 µM | SNB-75 98.2 µM | A498 > 100 µM | SK-MEL-28 > 100 µM | NCI-H23 > 100 µM | A549 > 100 µM

CN(C)c1ccc2oc(=O)c3ccccc3c2c1
inactive: RPMI-8226 > 100 µM | UACC-62 99.8 µM | OVCAR-4 > 100 µM | HOP-62 21 µM | OVCAR-8 > 100 µM | NCI-H226 46.7 µM | MDA-MB-231 17.1 µM | NCI-H522 55.8 µM | SW-620 > 100 µM | MOLT-4 > 100 µM | LOX IMVI > 100 µM | UACC-257 > 100 µM | MDA-MB-435 > 100 µM | SNB-75 27.5 µM | A498 34.8 µM | SK-MEL-28 > 100 µM | T47D > 100 µM | NCI-H23 22.9 µM | A549 > 100 µM
